# In US20170369492A1 (Takeda Pharmaceutical Company Limited, priority 2014, published 2017):
# Biological target: T1, human GPR43 (Homo sapiens, UniProt O15552)
# T1 construct: expressed in transfected cells
# T1 sequence (O15552 1-330): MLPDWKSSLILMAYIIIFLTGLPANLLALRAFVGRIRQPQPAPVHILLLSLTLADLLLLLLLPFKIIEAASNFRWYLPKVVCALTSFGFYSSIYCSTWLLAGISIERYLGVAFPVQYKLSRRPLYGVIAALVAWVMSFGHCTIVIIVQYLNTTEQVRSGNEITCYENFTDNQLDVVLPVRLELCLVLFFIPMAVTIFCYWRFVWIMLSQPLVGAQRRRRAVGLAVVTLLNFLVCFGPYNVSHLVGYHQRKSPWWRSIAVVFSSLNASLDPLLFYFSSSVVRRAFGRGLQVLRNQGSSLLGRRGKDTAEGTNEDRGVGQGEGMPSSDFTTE
# Assay: Ca-Flux Functional Assay: Determination of Agonist/Positive Allosteric Modulator (PAM) Activity
# Assay type: cell-based
# Conditions: CHO-K1 Gα16 cells stably expressing human GPR43; compound added in the presence of EC20 sodium acetate; intracellular Ca2+ by FLIPR; agonist/PAM activity not distinguished
# Method: Ca-Flux Functional Assay: Determination of Agonist/Positive Allosteric Modulator (PAM) Activity
# GPR43 agonist/PAM activity was determined by measuring changes in intracellular calcium levels using a Ca^2+ sensitive fluorescent dye. The changes in fluorescent signal were monitored by FLIPR (manufactured by Molecular Devices). GPR43 mediated increases in intracellular Ca^2+ concentration were readily detected upon activation with sodium acetate. Prior to the assay (24 hours), CHO-K1 Gα16 cells stably expressing human GPR43 were-seeded in cell culture medium in black, clear-bottom 384-well plates (Corning Inc) and grown overnight at 37° C., 5% CO2. On the day of the assay, cell culture media was removed and cells were loaded with Calcium 5 Dye (Molecular Devices) diluted in HBSS containing 25 mM HEPES, 2.5 mM Probenecid, 0.1% BSA for 1 hour at 37° C., 5% CO2. 10 point half log concentration response curves of sodium acetate from 10 mM were conducted prior to the testing of compounds to calculate the sodium acetate concentration that produces 20% of the maximal response (EC20). Test compounds (at to point half log concentration response curves from 10 μM) were added in the presence of sodium acetate to achieve a final concentration that produces approximately 20% maximal response as calculated from the previous experiment. The changes in fluorescent signal were monitored by FLIPR upon addition of the compound/EC20 sodium acetate mix. The EC50 values were determined from ten point concentration response curves. Curves were generated using the average of two wells for each data point.
# The above assay detects both GPR43 receptor agonists and positive allosteric modulators of the GPR43 receptor, without distinguishing between the two. Activity in either regard is useful in the treatment of conditions associated with GPR43 receptor activity.
row,SMILES,EC50
1,"COc1ccc(S(=O)(=O)c2c(N)n(C3CCC(F)(F)CC3)c3cccnc23)cc1 [Example 22, 1-(4,4-difluorocyclohexyl)-3-[(4-methoxybenzene)sulfonyl]-1H-pyrrolo[3,2-b]pyridin-2-amine]",167 nM
2,"Nc1c(S(=O)(=O)N2CCCOCC2)c2nccnc2n1C1CCCCC1 [Example 72, 5-cyclohexyl-7-(1,4-oxazepane-4-sulfonyl)-5H-pyrrolo[2,3-b]pyrazin-6-amine]",1800 nM
3,"Nc1c(S(=O)(=O)c2ccccc2)c2nccnc2n1C1CCCCC1 [Example 1, 7-(benzenesulfonyl)-5-cyclohexyl-5H-pyrrolo[2,3-b]pyrazin-6-amine]",261 nM
4,"Nc1c(S(=O)(=O)N2CCC(F)(F)CC2)c2nccnc2n1C1CCCCC1 [Example 69, 5-cyclohexyl-7-((4,4-difluoropiperidin-1-yl)sulfonyl)-5H-pyrrolo[2,3-b]pyrazin-6-amine]",547 nM
5,"Nc1c(S(=O)(=O)c2ccccc2)c2cccnc2n1C1CCC(F)(F)CC1 [Example 17, 3-(benzenesulfonyl)-1-(4,4-difluorocyclohexyl)-1H-pyrrolo[2,3-b]pyridin-2-amine]",559 nM
6,"Nc1c(S(=O)(=O)c2ccccc2)c2nccnc2n1CCC1CC1 [Example 48, 5-(2-cyclopropylethyl)-7-(phenylsulfonyl)-5H-pyrrolo[2,3-b]pyrazin-6-amine]",3260 nM
7,"CCC1(Cn2c(N)c(S(=O)(=O)c3ccccc3)c3nccnc32)CC1 [Example 55, 5-((1-ethylcyclopropyl)-methyl)-7-(phenylsulfonyl)-5H-pyrrolo[2,3-b]pyrazin-6-amine]",7170 nM
8,"Nc1c(S(=O)(=O)c2ccc(F)cc2)c2nccnc2n1C1CCCCC1 [Example 6, 5-cyclohexyl-7-[(4-fluorobenzene)sulfonyl]-5H-pyrrolo[2,3-b]pyrazin-6-amine]",301 nM
9,"Nc1c(S(=O)(=O)c2ccccc2)c2cc(Cl)nnc2n1C1CCCCC1 [Example 27, 5-(benzenesulfonyl)-3-chloro-7-cyclohexyl-7H-pyrrolo[2,3-c]pyridazin-6-amine]",277 nM
10,"Nc1c(S(=O)(=O)c2ccccc2)c2nccnc2n1CC1CCCC1 [Example 54, 5-(cyclopentylmethyl)-7-(phenylsulfonyl)-5H-pyrrolo[2,3-b]pyrazin-6-amine]",1540 nM
11,"Nc1c(S(=O)(=O)N2CCOCC2)c2nccnc2n1C1CCCCC1 [Example 61, 5-cyclohexyl-7-(morpholinosulfonyl)-5H-pyrrolo[2,3-b]pyrazin-6-amine]",4320 nM
12,"Cc1ccc(S(=O)(=O)c2c(N)n(C3CCCC3)c3nccnc23)cc1 [Example 4, 5-cyclopentyl-7-[(4-methylbenzene)sulfonyl]-5H-pyrrolo[2,3-b]pyrazin-6-amine]",908 nM
13,"CN1CCN(S(=O)(=O)c2c(N)n(C3CCCCC3)c3nccnc23)CC1 [Example 63, 5-cyclohexyl-7-((4-methylpiperazin-1-yl)sulfonyl)-5H-pyrrolo[2,3-b]pyrazin-6-amine]",7950 nM
14,"CC1CCN(S(=O)(=O)c2c(N)n(C3CCCCC3)c3nccnc23)CC1 [Example 62, 5-cyclohexyl-7-((4-methylpiperidin-1-yl)sulfonyl)-5H-pyrrolo[2,3-b]pyrazin-6-amine]",303 nM
15,"CC1CCCN1S(=O)(=O)c1c(N)n(C2CCCCC2)c2nccnc12 (stereo not shown) [Example 68, 5-cyclohexyl-7-((2-methylpyrrolidin-1-yl)sulfonyl)-5H-pyrrolo[2,3-b]pyrazin-6-amine]",1470 nM
16,"Cc1ccc(S(=O)(=O)c2c(N)n(C3CCCC3)c3cccnc23)cc1 [Example 10, 1-cyclopentyl-3-[(4-methylbenzene)sulfonyl]-1H-pyrrolo[3,2-b]pyridin-2-amine]",2300 nM
17,"COc1nc(C)nc2c(S(=O)(=O)c3ccccc3F)c(N)n(C3CCCCC3)c12 [Example 38, 5-cyclohexyl-7-(2-fluorobenzenesulfonyl)-4-methoxy-2-methyl-5H-pyrrolo[3,2-d]pyrimidin-6-amine]",169 nM
18,"Nc1c(S(=O)(=O)C2CCCCC2)c2nccnc2n1C1CCCCC1 [Example 12, 7-(cyclohexanesulfonyl)-5-cyclohexyl-5-pyrrolo[2,3-b]pyrazin-6-amine]",671 nM
19,"Nc1c(S(=O)(=O)c2ccccc2)c2ncnc(Cl)c2n1C1CCC(F)(F)CC1 [Example 32, 7-(benzenesulfonyl)-4-chloro-5-(4,4-difluorocyclohexyl)-5H-pyrrolo[3,2-d]pyrimidin-6-amine]",689 nM
20,"CNc1ncnc2c(S(=O)(=O)c3ccccc3)c(N)n(C3CCC(F)(F)CC3)c12 [Example 33, 7-(benzenesulfonyl)-5-(4,4-difluorocyclohexyl)-4-N-methyl-5H-pyrrolo[3,2-d]pyrimidine-4,6-diamine]",2720 nM
21,"Nc1c(S(=O)(=O)Nc2cccnc2)c2nccnc2n1C1CCCCC1 [Example 42, 6-amino-5-cyclohexyl-N-(pyridin-3-yl)-5H-pyrrolo[2,3-b]pyrazine-7-sulfonamide]",2300 nM

# More lines, now with the values ahead:
row,EC50,SMILES
1,1080 nM,"Nc1c(S(=O)(=O)c2ccc(OC(F)(F)F)cc2)c2nccnc2n1C1CCCCC1 [Example 116, 5-cyclohexyl-7-{[4-(trifluoromethoxy)-benzene]sulfonyl}-5H-pyrrolo[2,3-b]pyrazin-6-amine]"
2,258 nM,"CC1CCCN(S(=O)(=O)c2c(N)n(C3CCCCC3)c3nccnc23)C1 (stereo not shown) [Example 102, 5-cyclohexyl-7-(3-methylpiperidine-1-sulfonyl)-5H-pyrrolo[2,3-b]pyrazin-6-amine]"
3,7030 nM,"Nc1c(S(=O)(=O)N2CC(n3cccn3)C2)c2nccnc2n1C1CCCCC1 [Example 101, 5-cyclohexyl-7-[3-(1H-pyrazol-1-yl)azetidine-1-sulfonyl]-5H-pyrrolo[2,3-b]pyrazin-6-amine]"
4,206 nM,"COc1ccc(S(=O)(=O)c2c(N)n(C3CCCCC3)c3nccnc23)cc1Cl [Example 114, 7-[(3-chloro-4-methoxybenzene)-sulfonyl]-5-cyclohexyl-5H-pyrrolo[2,3-b]pyrazin-6-amine]"
5,440 nM,"CC1(C)CCCN(S(=O)(=O)c2c(N)n(C3CCCCC3)c3nccnc23)C1 [Example 92, 5-cyclohexyl-7-(3,3-dimethylpiperidine-1-sulfonyl)-5H-pyrrolo[2,3-b]pyrazin-6-amine]"
6,3150 nM,"COCC1CCN(S(=O)(=O)c2c(N)n(C3CCCCC3)c3nccnc23)C1 (stereo not shown) [Example 88, 5-cyclohexyl-7-[3-(methoxyrnethyl)pyrrolidine-1-sulfonyl]-5H-pyrrolo[2,3-b]pyrazin-6-amine]"
7,1530 nM,"CC1CN(S(=O)(=O)c2c(N)n(C3CCCCC3)c3nccnc23)CC(C)O1 (mixture of isomers) [Example 76, 5-cyclohexyl-7-(2,6-dimethylmorpholine-4-sulfonyl)-5H-pyrrolo[2,3-b]pyrazin-6-amine]"
8,3290 nM,"Nc1c(S(=O)(=O)NCCc2ccccc2)c2nccnc2n1C1CCCCC1 [Example 84, 6-amino-5-cyclohexyl-N-(2-phenylethyl)-5H-pyrrolo[2,3-b]pyrazine-7-sulfonamide]"
9,290 nM,"Nc1c(S(=O)(=O)N2CCCCCC2)c2nccnc2n1C1CCCCC1 [Example 77, 7-(azepane-1-sulfonyl)-5-cyclohexyl-5H-pyrrolo[2,3-b]pyrazin-6-amine]"
10,471 nM,"Nc1c(S(=O)(=O)NCCc2nccs2)c2nccnc2n1C1CCCCC1 [Example 103, 6-amino-5-cyclohexyl-N-[2-(1,3-thiazol-2-yl)ethyl]-5H-pyrrolo[2,3-b]pyrazine-7-sulfonamide]"
